{"source": "patent US8563241B2", "about": "(Institut de Cardiologie de Montreal, priority 2009, dated 2013)", "key": {"[1]": {"test": "Pilot genetic study of INR fluctuations in 324 post INR-stabilization atrial fibrillation patients by CYP4F2 rs2108622 and NR1I2 rs6772976 genotype", "format": "in vivo, human", "procedure": "(§1) The study was focused on the post INR-stabilization period by excluding the first six months of therapy, and further excluded hospitalization periods. […] INR fluctuations were measured according to the Rosendaal method based on linear interpolation.\nFor the pilot genetic study, 324 patients with atrial fibrillation were selected, for whom therapy was started prior to Aug. 1, 2005, with a follow up of 36 months or more and with at most 70 years of age. […] Genotyping was conducted using the Sequenom technology."}, "[2]": {"test": "Retrospective study of INR fluctuations outside the target therapeutic INR range in 1,615 patients of the MHI warfarin clinic (Rosendaal method)", "format": "in vivo, human", "settings": "post-stabilization follow up period (first six months and hospitalization periods excluded)", "procedure": "as §1"}}, "data": [{"smiles": "CC(=O)CC(c1ccccc1)c1c(O)c2ccccc2oc1=O", "note": "(stereo not shown) [warfarin]", "values": [{"measurement": "average % of the time above the patient-specific target therapeutic INR range", "setting": "[1]; patients with CYP4F2 rs2108622 CC genotype", "value": 17.1, "unit": "%"}, {"measurement": "average % of the time above the patient-specific target therapeutic INR range", "setting": "[1]; patients with CYP4F2 rs2108622 CT genotype", "value": 15.9, "unit": "%"}, {"measurement": "average % of the time above the patient-specific target therapeutic INR range", "setting": "[1]; patients with CYP4F2 rs2108622 TT genotype", "value": 29.6, "unit": "%"}, {"measurement": "time above target therapeutic INR range", "setting": "[2]", "value": 17.2, "unit": "%"}]}]}
